Publication PMC7582707, “Synthesis and Properties of CurNQ for the Theranostic Application in Ovarian Cancer Intervention” (Molecules, 2020)
In brackets after ≈: the same amount, converted by molar mass.

How the values were obtained:
[1] = Cell viability / cytotoxicity by high content imaging, healthy fibroblast control; format: cell-based; settings: mouse, NIH:3T3 fibroblast cells
Experimental: (§1) The ovarian carcinoma cancer cell lines OVCAR-5 and SKOV3 were purchased from Fox Chase Cancer Facility, USA, Jerkitown, […]. The healthy fibroblast cell line NIH: 3T3 was utilized as a control. The cells were cultured in DMEM with the media being supplemented with 10% fetal bovine serum and 1% penicillin-streptomycin. Cells were incubated at 37 °C with 5% CO2. Upon the cells reaching 70–80% confluency, the cells were washed, and sub-cultured by harvesting using trypsin/EDTA.
(§2) Cells were grown until 80% confluency prior to utilization. Upon confluency, media was removed, and cells were washed twice in sterile PBS. Trypsin/EDTA was then added to the flasks and incubated at 37 °C for 5 min, allowing the cells to detach from the bottom of the flask. These cells were then collected and centrifuged. The pellet was resuspended, and the cells were counted using the trypan blue exclusion assay. A predetermined and equal number of cells were then added into each well of a 96-well plate. The cells were incubated overnight at 37 °C and at 5% CO2, allowing the cells to attach to the plates. […] Each treatment was performed in quintuplicate. Treatments occurred for 24 h. Subsequent to this time period, media was removed, and cells were fixed with 5% formaldehyde in PBS for 20 min. Next, cells were incubated for 15 min in a 1 µg/mL solution of DAPI. The plates were then washed several times with PBS to remove all residual DAPI and to reduce background fluorescence. All plates were stored in the dark. Plates were then run on the Logos Biosystem CELENA® X High Content Imaging System and analyses were performed using their proprietary software. IC50 values were calculated using a Prism Graph. Using the Logos Biosystem software, a pipeline was set up to determine the nuclei count, form factor, compactness and eccentricity. The following definitions were used:Eccentricity = ratio of the distance between the foci of the ellipse and its major axis length. Compactness = mean squared distance of the object’s pixels from the centroid divided by the area. Form Factor = 4 × π × Area/Perimeter2

NIH:3T3 = assay: as above; format: cell-based; settings: Mus musculus, NIH3T3; NIH:3T3 healthy fibroblast, 24 h treatment
Experimental: as §1, §2

SKOV3 = assay: Cell viability / cytotoxicity by high content imaging (DAPI nuclei count); format: cell-based; settings: for IC50: Homo sapiens, SK-OV-3, SKOV3, 24 h treatment
Experimental: as §1, §2

OVCAR-5 = assay: as above; format: cell-based; settings: for IC50: OVCAR-5, 24 h treatment
Experimental: as §1, §2

OVCAR-5 cells = assay: Nuclear morphology analysis by high content imaging (eccentricity, compactness, form factor); format: cell-based; settings: 24 h; for form factor of nuclei: OVCAR-5, treatment greater than 50 µM
Experimental: Cells were grown until 80% confluency prior to utilization. Upon confluency, media was removed, and cells were washed twice in sterile PBS. Trypsin/EDTA was then added to the flasks and incubated at 37 °C for 5 min, allowing the cells to detach from the bottom of the flask. These cells were then collected and centrifuged. The pellet was resuspended, and the cells were counted using the trypan blue exclusion assay. A predetermined and equal number of cells were then added into each well of a 96-well plate. The cells were incubated overnight at 37 °C and at 5% CO2, allowing the cells to attach to the plates. […] Each treatment was performed in quintuplicate. Treatments occurred for 24 h. Subsequent to this time period, media was removed, and cells were fixed with 5% formaldehyde in PBS for 20 min. Next, cells were incubated for 15 min in a 1 µg/mL solution of DAPI. The plates were then washed several times with PBS to remove all residual DAPI and to reduce background fluorescence.

[2] = Saturation solubility at different pH; format: physicochemical
Text: Consequently, cancer targeting and specific release of an active agent at the tumor location is essential. Multiple tactics can be employed to achieve this. Herein, we exploited the acidification of the tumor microenvironment that accompanies malignant transformation for targeted detection and treatment. […] The slight acidification of the microenvironment surrounding a tumor is a hallmark feature of cancer and is termed the Warburg effect. Therefore, CurNQ can detect this change in pH associated with malignant transformation resulting from its pH specific solubility.
Figure 4 Fluorescence properties and pH specific properties of CurNQ. (A) Excitation and emission spectra of 1.5 µM solution of CurNQ. (B) Saturation solubility of a I.5 µM solution of CurNQ at pH 7.4 and 6.8.

Q: Which viability at 24 h ([1]; NIH:3T3, lowest viability reached) does the source give for `O=C1C=C(Br)C(=O)c2ccccc21` [BrNQ, 2-bromo-1,4-naphthoquinone, reference compound] here?
A: < 15%

Q: And the IC50 (NIH:3T3)?
A: 6.91 µM

Q: And the IC50 (SKOV3)?
A: 2.74 µM

Q: And the viability at 20 µM (OVCAR-5; Homo sapiens, OVCAR-5, 24 h, read-out: cell viability)?
A: < 10%

Q: What about the IC50 (OVCAR-5; Homo sapiens) of the same molecule?
A: 4.85 µM

Q: And the “form factor of nuclei” value (OVCAR-5 cells)?
A: large increase

Q: With `COc1cc(/C=C/C(=O)CC(=O)/C=C/c2ccc(O)c(OC)c2)ccc1O` [CUR, diferuloylmethane, reference compound] as the molecule, how does the IC50 (NIH:3T3) read?
A: 43.9 µM

Q: What about the IC50 (SKOV3) of the same molecule?
A: 4.79 µM

Q: And the IC50 (OVCAR-5; Homo sapiens)?
A: 9.64 µM

Q: With `COc1cc(/C=C/C(=O)/C=C(O)/C=C/c2ccc(OC3=CC(=O)c4ccccc4C3=O)c(OC)c2)ccc1OC1=CC(=O)c2ccccc2C1=O` [CurNQ, 2,2′-((((1E,3Z,6E)-3-hydroxy-5-oxohepta-1,3,6-triene-1,7-diyl)bis(2-methoxy-4,1-phenylene))bis(oxy))bis(naphthalene-1,4-dione)] as the molecule, how does the viability at 24 h, 100 µM ([1]; NIH:3T3, 100 µM) read?
A: 44%

Q: And the IC50 (NIH:3T3)?
A: 65.5 µM

Q: And the solubility ([2]; pH 6.8, aqueous buffer)?
A: 20.7 µM (≈ 14.1 µg/mL)

Q: What about the solubility ([2]; pH 7.4, aqueous buffer) of the same molecule?
A: 11.2 µM (≈ 7.59 µg/mL)

Q: And the IC50 (SKOV3)?
A: 5.35 µM

Q: What about the cell viability (SKOV3; SKOV3, in vitro cytotoxicity assay) of the same molecule?
A: below 50%

Q: What about the IC50 (OVCAR-5; Homo sapiens) of the same molecule?
A: 4.05 µM

Q: And the cell viability (OVCAR-5; OVCAR-5, in vitro cytotoxicity assay)?
A: below 50%

Q: What about the cell viability (OVCAR-5; OVCAR-5, low concentrations, 24-h incubation) of the same molecule?
A: below 40%

Q: What about the eccentricity of nuclei (OVCAR-5 cells; OVCAR-5, 5-100 µM) of the same molecule?
A: decreased in a dose-dependent manner

Q: And the “form factor of nuclei” value (OVCAR-5 cells)?
A: large increase
